Experimental data as given in ChEMBL document CHEMBL5291721, “A preclinical secondary pharmacology resource illuminates target-adverse drug reaction associations of marketed drugs” (Nat Commun, 2023).

Experiments:
[1] = target: T1, Alpha-2A adrenergic receptor (Homo sapiens, UniProt P08913); format: functional, cell-based
T1 sequence (P08913 whole entry): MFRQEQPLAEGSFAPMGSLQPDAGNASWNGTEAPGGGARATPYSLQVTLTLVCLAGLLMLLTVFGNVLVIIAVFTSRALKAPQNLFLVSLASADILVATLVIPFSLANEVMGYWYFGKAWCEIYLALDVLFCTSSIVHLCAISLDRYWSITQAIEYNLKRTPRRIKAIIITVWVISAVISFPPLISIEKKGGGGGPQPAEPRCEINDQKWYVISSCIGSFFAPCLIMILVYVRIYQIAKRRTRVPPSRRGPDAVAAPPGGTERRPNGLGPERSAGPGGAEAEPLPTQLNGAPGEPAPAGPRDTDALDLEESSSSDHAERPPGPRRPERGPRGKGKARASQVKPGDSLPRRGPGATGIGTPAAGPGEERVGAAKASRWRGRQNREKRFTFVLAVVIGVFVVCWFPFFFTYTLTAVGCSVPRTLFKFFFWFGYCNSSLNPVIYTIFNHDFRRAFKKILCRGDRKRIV

[2] = target: T2, B2 bradykinin receptor (Homo sapiens, UniProt P30411)
T2 sequence (P30411 whole entry): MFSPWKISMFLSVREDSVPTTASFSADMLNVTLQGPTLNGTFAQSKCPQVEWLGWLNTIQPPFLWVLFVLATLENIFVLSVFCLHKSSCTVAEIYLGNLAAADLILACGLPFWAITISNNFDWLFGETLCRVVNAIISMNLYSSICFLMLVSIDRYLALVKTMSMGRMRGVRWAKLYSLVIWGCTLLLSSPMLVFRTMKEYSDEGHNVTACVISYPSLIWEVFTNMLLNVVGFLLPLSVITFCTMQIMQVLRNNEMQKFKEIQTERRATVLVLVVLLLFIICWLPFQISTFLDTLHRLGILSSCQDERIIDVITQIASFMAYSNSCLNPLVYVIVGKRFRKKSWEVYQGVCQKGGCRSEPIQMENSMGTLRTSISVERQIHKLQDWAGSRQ

[3] = target: T3, Muscarinic acetylcholine receptor M2 (Homo sapiens, UniProt P08172); format: functional, cell-based
T3 sequence (P08172 whole entry): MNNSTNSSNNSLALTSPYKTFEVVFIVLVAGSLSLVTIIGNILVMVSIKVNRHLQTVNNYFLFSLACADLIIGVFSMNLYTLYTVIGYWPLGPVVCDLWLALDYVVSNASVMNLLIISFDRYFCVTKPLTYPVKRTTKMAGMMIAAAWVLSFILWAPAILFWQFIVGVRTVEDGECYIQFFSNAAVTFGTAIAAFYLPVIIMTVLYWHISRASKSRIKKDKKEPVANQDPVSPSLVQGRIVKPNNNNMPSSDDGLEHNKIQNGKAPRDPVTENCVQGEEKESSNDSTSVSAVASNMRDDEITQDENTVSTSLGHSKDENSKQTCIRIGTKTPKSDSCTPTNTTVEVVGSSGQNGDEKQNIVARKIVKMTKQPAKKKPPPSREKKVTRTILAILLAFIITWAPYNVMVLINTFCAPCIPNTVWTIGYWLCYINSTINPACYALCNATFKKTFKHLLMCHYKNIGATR

[4] = target: T4, Glucocorticoid receptor (Homo sapiens, UniProt P04150)
T4 sequence (P04150 whole entry): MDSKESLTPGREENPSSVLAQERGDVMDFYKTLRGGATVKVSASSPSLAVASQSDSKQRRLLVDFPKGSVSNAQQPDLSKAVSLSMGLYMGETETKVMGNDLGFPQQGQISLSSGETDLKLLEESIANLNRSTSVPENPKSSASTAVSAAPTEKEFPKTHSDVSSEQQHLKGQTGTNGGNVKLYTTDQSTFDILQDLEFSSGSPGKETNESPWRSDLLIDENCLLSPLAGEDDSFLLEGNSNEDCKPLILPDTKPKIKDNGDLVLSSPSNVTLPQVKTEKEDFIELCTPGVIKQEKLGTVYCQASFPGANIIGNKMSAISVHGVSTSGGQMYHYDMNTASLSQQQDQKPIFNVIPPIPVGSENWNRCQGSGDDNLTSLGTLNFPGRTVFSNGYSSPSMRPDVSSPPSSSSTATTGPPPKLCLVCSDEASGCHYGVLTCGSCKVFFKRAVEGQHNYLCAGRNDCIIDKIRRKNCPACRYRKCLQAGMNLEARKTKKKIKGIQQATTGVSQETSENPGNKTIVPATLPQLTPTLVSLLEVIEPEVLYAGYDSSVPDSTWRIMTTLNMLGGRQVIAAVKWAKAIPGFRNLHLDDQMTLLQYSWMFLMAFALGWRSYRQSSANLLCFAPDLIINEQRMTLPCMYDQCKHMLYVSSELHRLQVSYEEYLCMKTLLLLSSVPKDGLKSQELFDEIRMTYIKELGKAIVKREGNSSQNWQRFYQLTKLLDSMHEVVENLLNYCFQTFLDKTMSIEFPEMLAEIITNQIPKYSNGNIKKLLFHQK

[5] = target: Mu-type opioid receptor (Homo sapiens, UniProt P35372); experiment: biochemical; format: functional
[6] = target: 3',5'-cyclic-AMP phosphodiesterase 4D (Homo sapiens, UniProt Q08499); format: functional
[7] = target: T5, Equilibrative nucleoside transporter 1 (Homo sapiens, UniProt Q99808)
T5 sequence (Q99808 whole entry): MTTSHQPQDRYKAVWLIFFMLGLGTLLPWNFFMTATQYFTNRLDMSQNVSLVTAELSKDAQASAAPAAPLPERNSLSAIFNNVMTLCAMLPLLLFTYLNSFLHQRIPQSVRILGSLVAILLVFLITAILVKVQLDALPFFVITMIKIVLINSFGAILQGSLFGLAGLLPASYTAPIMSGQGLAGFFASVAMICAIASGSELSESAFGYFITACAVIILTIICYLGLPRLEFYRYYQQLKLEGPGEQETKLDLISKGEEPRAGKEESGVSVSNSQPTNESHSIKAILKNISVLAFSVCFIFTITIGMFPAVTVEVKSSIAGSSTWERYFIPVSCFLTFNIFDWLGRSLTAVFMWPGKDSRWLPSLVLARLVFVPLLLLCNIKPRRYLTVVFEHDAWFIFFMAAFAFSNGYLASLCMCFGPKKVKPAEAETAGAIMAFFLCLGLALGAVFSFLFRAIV

[8] = target: cGMP-inhibited 3',5'-cyclic phosphodiesterase 3A (Homo sapiens, UniProt Q14432); format: functional
[9] = target: Histamine H3 receptor (Homo sapiens, UniProt Q9Y5N1)
Also: assay procedure not described here.

cGMP-inhibited 3',5'-cyclic phosphodiesterase 3A, sequence (Q14432 whole entry): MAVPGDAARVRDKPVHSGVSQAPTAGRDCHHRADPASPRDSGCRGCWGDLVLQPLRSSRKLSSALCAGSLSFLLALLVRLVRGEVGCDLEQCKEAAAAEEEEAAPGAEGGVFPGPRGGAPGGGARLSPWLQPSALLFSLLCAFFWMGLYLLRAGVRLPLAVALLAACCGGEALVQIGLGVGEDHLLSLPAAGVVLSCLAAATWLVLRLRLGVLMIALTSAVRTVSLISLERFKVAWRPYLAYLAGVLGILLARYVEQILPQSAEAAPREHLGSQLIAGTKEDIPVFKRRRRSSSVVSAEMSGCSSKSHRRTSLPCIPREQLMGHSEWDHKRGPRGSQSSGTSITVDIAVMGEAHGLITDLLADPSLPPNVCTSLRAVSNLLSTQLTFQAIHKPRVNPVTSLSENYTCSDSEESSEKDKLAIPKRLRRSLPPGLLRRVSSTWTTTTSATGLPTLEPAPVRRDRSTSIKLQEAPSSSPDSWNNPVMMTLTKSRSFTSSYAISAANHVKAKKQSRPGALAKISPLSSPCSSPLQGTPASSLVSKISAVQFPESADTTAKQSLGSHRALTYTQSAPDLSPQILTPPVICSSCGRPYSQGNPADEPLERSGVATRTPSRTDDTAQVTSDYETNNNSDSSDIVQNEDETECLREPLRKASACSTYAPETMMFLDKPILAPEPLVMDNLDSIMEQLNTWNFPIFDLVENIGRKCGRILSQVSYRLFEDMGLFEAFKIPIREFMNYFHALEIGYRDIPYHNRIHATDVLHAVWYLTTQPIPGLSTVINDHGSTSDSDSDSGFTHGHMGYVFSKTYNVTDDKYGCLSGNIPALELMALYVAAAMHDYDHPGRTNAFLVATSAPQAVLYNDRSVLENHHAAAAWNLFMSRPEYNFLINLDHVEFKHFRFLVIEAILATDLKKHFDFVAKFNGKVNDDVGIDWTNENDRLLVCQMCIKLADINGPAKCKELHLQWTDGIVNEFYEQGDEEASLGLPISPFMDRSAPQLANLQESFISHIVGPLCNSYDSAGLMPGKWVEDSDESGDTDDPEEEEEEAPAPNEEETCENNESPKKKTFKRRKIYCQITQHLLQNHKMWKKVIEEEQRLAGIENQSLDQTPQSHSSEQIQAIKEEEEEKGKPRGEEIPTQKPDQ
Histamine H3 receptor, sequence (Q9Y5N1 whole entry): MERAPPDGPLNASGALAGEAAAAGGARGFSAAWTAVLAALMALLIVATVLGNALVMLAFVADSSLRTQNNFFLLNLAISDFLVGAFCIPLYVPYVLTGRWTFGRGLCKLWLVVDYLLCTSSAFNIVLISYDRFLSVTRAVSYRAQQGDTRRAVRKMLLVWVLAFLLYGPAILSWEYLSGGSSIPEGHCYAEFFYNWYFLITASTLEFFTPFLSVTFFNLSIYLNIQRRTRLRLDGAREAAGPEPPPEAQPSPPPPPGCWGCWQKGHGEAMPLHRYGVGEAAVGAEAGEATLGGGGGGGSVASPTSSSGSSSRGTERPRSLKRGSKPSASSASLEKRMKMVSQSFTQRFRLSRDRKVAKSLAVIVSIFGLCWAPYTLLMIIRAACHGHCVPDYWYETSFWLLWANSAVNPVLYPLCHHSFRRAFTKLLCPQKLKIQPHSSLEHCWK
3',5'-cyclic-AMP phosphodiesterase 4D, sequence (Q08499 whole entry): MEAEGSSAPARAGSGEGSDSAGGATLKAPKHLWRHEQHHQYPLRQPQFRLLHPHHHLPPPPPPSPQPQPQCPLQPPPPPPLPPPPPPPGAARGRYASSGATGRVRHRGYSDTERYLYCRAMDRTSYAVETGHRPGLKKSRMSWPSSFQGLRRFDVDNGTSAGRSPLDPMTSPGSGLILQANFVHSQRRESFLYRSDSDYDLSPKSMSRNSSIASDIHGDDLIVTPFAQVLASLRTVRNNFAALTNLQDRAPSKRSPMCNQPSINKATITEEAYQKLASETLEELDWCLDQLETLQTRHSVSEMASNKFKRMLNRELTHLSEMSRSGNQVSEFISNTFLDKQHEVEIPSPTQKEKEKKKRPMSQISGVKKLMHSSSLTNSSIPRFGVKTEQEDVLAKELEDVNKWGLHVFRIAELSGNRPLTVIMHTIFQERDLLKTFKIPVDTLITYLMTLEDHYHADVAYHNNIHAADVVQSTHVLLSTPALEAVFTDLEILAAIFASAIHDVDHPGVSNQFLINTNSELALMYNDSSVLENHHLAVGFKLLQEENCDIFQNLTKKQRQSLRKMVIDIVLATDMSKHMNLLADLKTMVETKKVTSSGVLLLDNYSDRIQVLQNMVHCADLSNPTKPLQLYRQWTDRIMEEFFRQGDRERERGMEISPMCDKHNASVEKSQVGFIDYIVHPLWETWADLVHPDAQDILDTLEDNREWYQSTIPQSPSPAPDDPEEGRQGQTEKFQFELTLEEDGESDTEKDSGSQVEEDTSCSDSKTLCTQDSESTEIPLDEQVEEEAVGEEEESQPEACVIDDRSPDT
Mu-type opioid receptor, sequence (P35372 whole entry): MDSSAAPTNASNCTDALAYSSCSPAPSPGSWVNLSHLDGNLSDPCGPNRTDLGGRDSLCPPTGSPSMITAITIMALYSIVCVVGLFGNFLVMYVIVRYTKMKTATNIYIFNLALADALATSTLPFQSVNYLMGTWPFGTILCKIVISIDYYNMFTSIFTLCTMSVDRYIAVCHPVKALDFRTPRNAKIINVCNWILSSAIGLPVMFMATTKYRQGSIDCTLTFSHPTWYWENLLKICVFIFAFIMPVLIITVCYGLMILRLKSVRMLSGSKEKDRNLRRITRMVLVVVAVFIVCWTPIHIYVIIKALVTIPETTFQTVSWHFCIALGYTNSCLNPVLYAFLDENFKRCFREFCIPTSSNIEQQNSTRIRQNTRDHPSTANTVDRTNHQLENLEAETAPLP

| Compound | AC50 [1] [µM] | AC50 [2] [µM] | AC50 [3] [µM] | AC50 [4] [µM] | AC50 [5] [µM] | AC50 [6] [µM] | AC50 [7] [µM] | AC50 [8] [µM] | AC50 [9] [µM] |
| --- | --- | --- | --- | --- | --- | --- | --- | --- | --- |
| COc1c(C)c2c(c(O)c1C/C=C(\C)CCC(=O)OCCN1CCOCC1)C(=O)OC2 [MYCOPHENOLATE MOFETIL] | > 30 | > 30 | > 30 | > 30 | > 30 | > 30 | > 30 | 17 | > 30 |
| CC[C@]1(O)C[C@@H]2CN(CCc3c([nH]c4ccccc34)[C@@](C(=O)OC)(c3cc4c(cc3OC)N(C)[C@H]3[C@@](O)(C(N)=O)[C@H](O)[C@]5(CC)C=CCN6CC[C@]43[C@@H]65)C2)C1 [VINDESINE] | > 30 | > 30 | > 30 | > 30 | > 30 | > 30 | > 30 | > 30 | > 30 |
| Cc1c(O)c(=O)ccn1C [DEFERIPRONE] | > 30 | > 30 | > 30 | > 30 | > 30 | > 30 | > 30 | > 30 | > 30 |
| CCOc1cc(N)c([N+](=O)[O-])cc1C(=O)NC1CCN(CC2CC=CCC2)CC1 (stereo not given) [CINITAPRIDE] | > 30 | > 30 | > 30 | > 30 | > 30 | > 30 | > 30 | > 30 | 5.9 |
| TOCOFERSOLAN | > 30 | > 30 | > 30 | > 30 | > 30 | > 10 | > 30 | > 10 | > 30 |
| C1=Cc2cccc(OCC3CNCCO3)c2C1 (stereo not given) [INDELOXAZINE] | > 30 | > 30 | > 30 | > 30 | > 30 | > 30 | > 30 | > 30 | > 30 |
| O=C(C[S+]([O-])C(c1ccccc1)c1ccccc1)NO (stereo not given) | > 30 | > 30 | > 30 | > 30 | > 30 | 8.9 | > 30 | > 10 | > 30 |
| C#C[C@]1(O)CC[C@H]2[C@@H]3CCC4=CCCC[C@@H]4[C@H]3CC[C@@]21C [LYNESTRENOL] | > 30 | > 30 | > 30 | > 30 | > 30 | > 30 | > 30 | > 30 | > 30 |
| CCCCCN(C)CCC(O)(P(=O)(O)O)P(=O)(O)O [IBANDRONIC ACID] | > 30 | > 30 | > 30 | > 30 | 8.5 | > 30 | > 30 | 1.9 | > 30 |
| O=C(O)Cc1cn(-c2ccccc2)nc1-c1ccc(Cl)cc1 [LONAZOLAC] | > 30 | > 30 | > 30 | > 30 | > 30 | > 30 | > 30 | > 30 | > 30 |
